Data: patent US20250281513A1, “USE OF PS[…] TREAT […]” (priority 2021, published 2025)
Read-outs that look alike come from different tables or passages of the source.

Experiments:
[1] = tested on: amyloid precursor protein (APP); test: Down regulation of APP in RAW cells by psychedelic drugs (Example 5); assay type: cell-based; details: post 2 hours treatment (FIG. 9)
ABCF1 [2] = assay type: cell-based, murine; details: RAW264.7, 10 nM, 100 nM, 500 nM, 2 hours post treatment, normalized to GAPDH (FIG. 2)
Experimental: • 1. Macrophage cell line RAW264.7 (ATCC) were grown to 80% confluency in growth media (DMEM+10% FBS+glutamine). • 2. Dilutions of the drugs were made at desired final concentrations for a Dose response experiment. The concentrations' used for this experiment are: 10 nM, 100 nM, 500 nM for Psilocin, Psylocibin, 4-Acetoxy-N, N-dimthyltryptamine, O-Acetyl Psilocin Fumerate, and 4-acetoxyindole. • 3. Untreated cells were used as negative control and Escitalopram at 0.3 mM was used as a positive control to activate ABCF1 expression for all the experiments. Analysis by qPCR:
• 1. 2 hours post treatment with drugs, the reaction was stopped by removing the media with the drug. Cells were then collected and RNA was isolated from these. • 2. After checking the quality of the RNA, cDNA was generated and qPCR was run with ABCF1 primers as the target gene and GAPDH as the house keeping gene. • 3. Normalized against the expression level of GAPDH, the fold change expression level of ABCF1 was calculated and tabulated for all treatment conditions.

ABCF1 [3] = test: Escitalopram induces ABCF1 in a macrophage cell line (real time RT-PCR); assay type: cell-based; details: RAW macrophages, 0.3 mM, 1 hour
Experimental: RAW macrophages were plated at 1×10^5 cells/well and cultured for 2 days. The cells were incubated with 0.3 mM Escitalopram for 1 hour, and then harvested for total RNA, which was extracted for real time RT-PCR specific for ABCF1 and IL-4. CT values were normalized with CT value for the housekeeping gene from the DMSO control.

For CC(=O)Oc1cccc2[nH]ccc12 [AOI, 4-acetoxyindole], the “amyloid precursor protein (APP) expression” value [1] was “down regulation” and the “ABCF1 transcription / expression” value (ABCF1 [2]) was “enhance expression of ABCF1”.

CC(=O)Oc1cccc2[nH]cc(CCN(C)C)c12.O=C(O)/C=C/C(=O)O [APF, O-Acetyl Psilocin Fumerate] was tested, and the “amyloid precursor protein (APP) expression” value [1] was “down regulation” and the “ABCF1 transcription / expression” value (ABCF1 [2]) was “enhance expression of ABCF1”.

In the case of CN(C)CCC[C@@]1(c2ccc(F)cc2)OCc2cc(C#N)ccc21 [Escitalopram], the ABCF1 expression (ABCF1 [3]; vs DMSO control (FIG. 1)) was “induces ABCF1 expression” and the “difference in the expression (ABCF1 and IL-4) after drug treatment” value (ABCF1 [3]; 3 separate experiments) was “consistent with polarization towards an M2-like phenotype”.

With CN(C)CCc1c[nH]c2cccc(O)c12 [psilocin, 4-hydroxy-N,N-dimethyltryptamine, reference compound] the “ABCF1 transcription / expression” value (ABCF1 [2]) was “enhance expression of ABCF1” and the “ABCF1 transcription / expression” value (ABCF1 [2]; listed as psylocin) was “upregulate ABCF1 transcription”.
